Patent publication US12318452B2, “Degraders of WEE1 kinase” (DANA-FARBER CANCER INSTITUTE, INC., priority 2018, dated 2025)

Target: Wee1 (Homo sapiens, UniProt P30291)
Assay: Cellular degradation of Wee1 by immunoblot, 6-hour treatment of MOLT4 cells
Assay type: cell-based
Set-up: endogenous in cells; host or cells: MOLT4 (wild type; CRBN-/- as control)
Conditions: MOLT4 cells; for percent Wee1 degradation at 1 µM: MOLT-4, 1 μM, approximated by immunoblot, read-out: Extent of Degradation of Wee1
Protocol: General Protocol: HT-29, MOLT4 wild type (WT) or CRBN^-/- cells were plated in a 6 well plate and treated for 6 hours with the indicated concentrations of the inventive compounds and control. HT-29 cells were cultured in McCoy's Media supplemented with 10% FBS and 1% Penicillin/Streptomycin. MOLT4 WT and CRBN^-/- cells were cultured in Roswell Park Memorial Institute (RPMI) medium supplemented with 10% FBS and 1% Penicillin/Streptomycin. Mycoplasma testing was performed every month and all lines were negative. Immunoblotting: Cells were washed with phosphate-buffered saline (PBS) and then lysed using radioimmunoprecipitation assay (RIPA) buffer supplemented with protease and phosphatase inhibitor cocktail (Roche) on ice for 15 minutes. The lysates were centrifuged at 14,000 rpm for 15 minutes at 4° C. and protein was quantified by bicinchoninic acid (BCA) assay (PierceTM). Primary antibodies used include: Wee1 ([…]) (Cell Signaling Technology®, 13084S), polo-like kinase 1 (PLK1) (Thermo Fisher Scientific, 37-7000), phosphor-cdc2 (Y15) (10A11) (Cell Signaling Technology®, […]), phospho-histone H3 ([…]) (Cell Signaling Technology®, […]), Ikaros ([…]) (Cell Signaling Technology®, 14859S), Aiolos ([…]) (Cell Signaling Technology®, 15103), casein kinase 1 alpha (Abcam®, 108296), β-actin (Cell Signaling Technology®, 8H10D10). FIG. 2A is an immunoblot showing that compound 13 degraded Wee1 after a 6-hour treatment in MOLT4 cells, and induced the downstream changes expected from Wee1 loss-including a decrease in phosphorylated cyclin-dependent kinase 1 (pCDK1) (Y15) and an increase in pH 3. […] Degradation of Wee1 by compound 13 was rescued in MOLT4 CRBN^-/- cells. MOLT4 WT and CRBN^-/- cells were plated in a 6-well plate at 2.25 million cells per well in 3 mL media (RPMI+10% FBS+1% Penn/Strep). After treatment with the indicated concentrations of candidate compounds, cells were incubated for 6 hours at 37° C. 5% CO2. To harvest, the cells were washed 1× with cold PBS, then collected by centrifugation. Cell pellets were lysed in RIPA buffer with protease and phosphatase inhibitors (Roche). Lysates were clarified by centrifugation, and protein concentrations were normalized using a BCA assay (Thermo ScientificTM). The samples were diluted with 4×LDS+10% β-mercaptoethanol, and were boiled at 95° C. for 5 minutes. Proteins of interest were then assessed by western blotting. […] The experimental protocol was the same as in Example 28.

Wee1, sequence (P30291 whole entry): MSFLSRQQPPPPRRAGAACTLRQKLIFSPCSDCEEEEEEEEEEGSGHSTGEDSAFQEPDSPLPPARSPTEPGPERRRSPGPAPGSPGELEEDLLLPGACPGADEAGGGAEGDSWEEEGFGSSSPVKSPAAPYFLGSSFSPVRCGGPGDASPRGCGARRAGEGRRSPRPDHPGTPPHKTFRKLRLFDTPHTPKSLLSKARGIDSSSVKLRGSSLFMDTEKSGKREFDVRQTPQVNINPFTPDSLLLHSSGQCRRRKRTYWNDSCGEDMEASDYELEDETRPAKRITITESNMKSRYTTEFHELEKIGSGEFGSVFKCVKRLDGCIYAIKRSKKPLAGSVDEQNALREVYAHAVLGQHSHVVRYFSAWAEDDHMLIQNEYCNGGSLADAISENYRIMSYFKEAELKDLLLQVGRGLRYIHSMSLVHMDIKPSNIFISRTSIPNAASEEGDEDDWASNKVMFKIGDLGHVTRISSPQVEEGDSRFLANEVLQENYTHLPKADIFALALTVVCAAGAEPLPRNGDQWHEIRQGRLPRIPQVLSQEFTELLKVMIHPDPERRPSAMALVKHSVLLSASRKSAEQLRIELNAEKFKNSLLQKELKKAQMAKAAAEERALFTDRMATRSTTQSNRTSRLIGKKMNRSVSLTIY

Structure (SMILES)	percent Wee1 degradation at 1 µM [%]	Wee1 degradation (immunoblot)
C=CCn1c(=O)c2cnc(Nc3ccc(N4CCN(C(=O)CCOCCOCCOCCOCCNc5cccc6c5C(=O)N(C5CCC(=O)NC5=O)C6=O)CC4)cc3)nc2n1-c1cccc(C(C)(C)O)n1 (centres unmarked) [Compound 1, 4-((15-(4-(4-((2-allyl-1-(6-(2-hydroxypropan-2-yl)pyridin-2-yl)-3-oxo-2,3-dihydro-1H-pyrazolo[3,4-d]pyrimidin-6-yl)amino)phenyl)piperazin-1-yl)-15-oxo-3,6,9,12-tetraoxapentadecyl)amino)-2-(2,6-dioxopiperidin-3-yl)isoindoline-1,3-dione]	< 25	
C=CCn1c(=O)c2cnc(Nc3ccc(N4CCN(C(=O)CCOCCOCCNc5cccc6c5C(=O)N(C5CCC(=O)NC5=O)C6=O)CC4)cc3)nc2n1-c1cccc(C(C)(C)O)n1 (centres unmarked) [Compound 3, 4-((2-(2-(3-(4-(4-((2-allyl-1-(6-(2-hydroxypropan-2-yl)pyridin-2-yl)-3-oxo-2,3-dihydro-1H-pyrazolo[3,4-d]pyrimidin-6-yl)amino)phenyl)piperazin-1-yl)-3-oxopropoxy)ethoxy)ethyl)amino)-2-(2,6-dioxopiperidin-3-yl)isoindoline-1,3-dione]	> 50	
C=CCn1c(=O)c2cnc(Nc3ccc(N4CCN(C(=O)CCOCCNc5cccc6c5C(=O)N(C5CCC(=O)NC5=O)C6=O)CC4)cc3)nc2n1-c1cccc(C(C)(C)O)n1 (centres unmarked) [Compound 5, 4-((2-(3-(4-(4-((2-allyl-1-(6-(2-hydroxypropan-2-yl)pyridin-2-yl)-3-oxo-2,3-dihydro-1H-pyrazolo[3,4-d]pyrimidin-6-yl)amino)phenyl)piperazin-1-yl)-3-oxopropoxy)ethyl)amino)-2-(2,6-dioxopiperidin-3-yl)isoindoline-1,3-dione]	> 50	
C=CCn1c(=O)c2cnc(Nc3ccc(N4CCN(C(=O)CCCCCCCCOc5cccc6c5C(=O)N(C5CCC(=O)NC5=O)C6=O)CC4)cc3)nc2n1-c1cccc(C(C)(C)O)n1 (centres unmarked) [Compound 6, 4-((9-(4-(4-((2-allyl-1-(6-(2-hydroxypropan-2-yl)pyridin-2-yl)-3-oxo-2,3-dihydro-1H-pyrazolo[3,4-d]pyrimidin-6-yl)amino)phenyl)piperazin-1-yl)-9-oxononyl)oxy)-2-(2,6-dioxopiperidin-3-yl)isoindoline-1,3-dione]	25 to 50	
C=CCn1c(=O)c2cnc(Nc3ccc(N4CCN(C(=O)CCOCCOCCOCCN5CCN(Cc6ccc(COc7cccc8c7CN([C@H]7CCC(=O)NC7=O)C8=O)cc6)CC5)CC4)cc3)nc2n1-c1cccc(C(C)(C)O)n1 [Compound 9, (S)-3-(4-((4-((4-(2-(2-(2-(3-(4-(4-((2-allyl-1-(6-(2-hydroxypropan-2-yl)pyridin-2-yl)-3-oxo-2,3-dihydro-1H-pyrazolo[3,4-d]pyrimidin-6-yl)amino)phenyl)piperazin-1-yl)-3-oxopropoxy)ethoxy)ethoxy)ethyl)piperazin-1-yl)methyl)benzyl)oxy)-1-oxoisoindolin-2-yl)piperidine-2,6-dione]	> 50	
C=CCn1c(=O)c2cnc(Nc3ccc(N4CCN(CCCNC(=O)CCOCCOCCOCCN5CCN(Cc6ccc(COc7cccc8c7CN([C@H]7CCC(=O)NC7=O)C8=O)cc6)CC5)CC4)cc3)nc2n1-c1cccc(C(C)(C)O)n1 [Compound 10, (S)—N-(3-(4-(4-((2-Allyl-1-(6-(2-hydroxypropan-2-yl)pyridin-2-yl)-3-oxo-2,3-dihydro-1H-pyrazolo[3,4-d]pyrimidin-6-yl)amino)phenyl)piperazin-1-yl)propyl)-3-(2-(2-(2-(4-(4-(((2-(2,6-dioxopiperidin-3-yl)-1-oxoisoindolin-4-yl)oxy)methyl)benzyl)piperazin-1-yl)ethoxy)ethoxy)ethoxy)propanamide]	25 to 50	
C=CCn1c(=O)c2cnc(Nc3ccc(N(C)CCCCNc4cccc5c4C(=O)N(C4CCC(=O)NC4=O)C5=O)cc3)nc2n1-c1cccc(C(C)(C)O)n1 (centres unmarked) [Compound 15, 4-((4-((4-((2-Allyl-1-(6-(2-hydroxypropan-2-yl)pyridin-2-yl)-3-oxo-2,3-dihydro-1H-pyrazolo[3,4-d]pyrimidin-6-yl)amino)phenyl)(methyl)amino)butyl)amino)-2-(2,6-dioxopiperidin-3-yl)isoindoline-1,3-dione]	25 to 50	
C=CCn1c(=O)c2cnc(Nc3ccc(N(C)CCCCNc4ccc5c(c4)C(=O)N(C4CCC(=O)NC4=O)C5=O)cc3)nc2n1-c1cccc(C(C)(C)O)n1 (centres unmarked) [Compound 16, 5-((4-((4-((2-Allyl-1-(6-(2-hydroxypropan-2-yl)pyridin-2-yl)-3-oxo-2,3-dihydro-1H-pyrazolo[3,4-d]pyrimidin-6-yl)amino)phenyl)(methyl)amino)butyl)amino)-2-(2,6-dioxopiperidin-3-yl)isoindoline-1,3-dione]	> 50	
C=CCn1c(=O)c2cnc(Nc3ccc(N4CCN(CCCNc5cccc6c5C(=O)N(C5CCC(=O)NC5=O)C6=O)CC4)cc3)nc2n1-c1cccc(OC)n1 (centres unmarked) [Compound 17, 4-((3-(4-(4-((2-Allyl-1-(6-methoxypyridin-2-yl)-3-oxo-2,3-dihydro-1H-pyrazolo[3,4-d]pyrimidin-6-yl)amino)phenyl)piperazin-1-yl)propyl)amino)-2-(2,6-dioxopiperidin-3-yl)isoindoline-1,3-dione]	> 50	

The remaining lines, values ahead:

percent Wee1 degradation at 1 µM [%]	Wee1 degradation (immunoblot)	Structure (SMILES)
25 to 50		C=CCn1c(=O)c2cnc(Nc3ccc(N4CCN(C(=O)CCOCCOCCNc5cccc6c5CN(C5CCC(=O)NC5=O)C6=O)CC4)cc3)nc2n1-c1cccc(C(C)(C)O)n1 (centres unmarked) [Compound 4, 3-(4-((2-(2-(3-(4-(4-((2-allyl-1-(6-(2-hydroxypropan-2-yl)pyridin-2-yl)-3-oxo-2,3-dihydro-1H-pyrazolo[3,4-d]pyrimidin-6-yl)amino)phenyl)piperazin-1-yl)-3-oxopropoxy)ethoxy)ethyl)amino)-1-oxoisoindolin-2-yl)piperidine-2,6-dione]
> 50		C=CCn1c(=O)c2cnc(Nc3ccc(N4CCN(CCCNC(=O)CCOCCOCCOCCOCCNc5cccc6c5C(=O)N(C5CCC(=O)NC5=O)C6=O)CC4)cc3)nc2n1-c1cccc(C(C)(C)O)n1 (centres unmarked) [Compound 8, N-(3-(4-(4-((2-allyl-1-(6-(2-hydroxypropan-2-yl)pyridin-2-yl)-3-oxo-2,3-dihydro-1H-pyrazolo[3,4-d]pyrimidin-6-yl)amino)phenyl)piperazin-1-yl)propyl)-1-((2-(2,6-dioxopiperidin-3-yl)-1,3-dioxoisoindolin-4-yl)amino)-3,6,9,12-tetraoxapentadecan-15-amide]
> 50		C=CCn1c(=O)c2cnc(Nc3ccc(N4CCN(CCCNc5cccc6c5C(=O)N(C5CCC(=O)NC5=O)C6=O)CC4)cc3)nc2n1-c1cccc(C(F)(F)F)n1 (centres unmarked) [Compound 18, 4-((3-(4-(4-((2-Allyl-3-oxo-1-(6-(trifluoromethyl)pyridin-2-yl)-2,3-dihydro-1H-pyrazolo[3,4-d]pyrimidin-6-yl)amino)phenyl)piperazin-1-yl)propyl)amino)-2-(2,6-dioxopiperidin-3-yl)isoindoline-1,3-dione]
< 25	Degradation of Wee1 was also observed	C=CCn1c(=O)c2cnc(Nc3ccc(N4CCN(CCCCCC(=O)N[C@H](C(=O)N5C[C@H](O)C[C@H]5C(=O)N[C@@H](C)c5ccc(-c6scnc6C)cc5)C(C)(C)C)CC4)cc3)nc2n1-c1cccc(C(C)(C)O)n1 [Compound 21, tert-butyl (2S,4R)-1-((S)-2-(6-(4-(4-((2-allyl-1-(6-(2-hydroxypropan-2-yl)pyridin-2-yl)-3-oxo-2,3-dihydro-1H-pyrazolo[3,4-d]pyrimidin-6-yl)amino)phenyl)piperazin-1-yl)hexanamido)-3,3-dimethylbutanoyl)-4-hydroxy-N—((S)-1-(4-(4-methylthiazol-5-yl)phenyl)ethyl)pyrrolidine-2-carboxamide]
